Assay results: a melting point compilation (Tetko et al.; mined from patent text by program, amines drawn as free bases though some values may be those of a salt)

SMILES	melting point
COC(=O)c1ccc(-c2ccc3c(c2)C=C(C(=O)Nc2ccc(CN(C)C4CCOCC4)cc2)CCC3)cc1	176 to 183 °C
CN(C(=O)NN1CC=CCC1)c1ccccc1	99 to 99.5 °C
CC1c2cnc3ccc(O[Si](C)(C)C(C)(C)C)cc3c2C(CO[Si](C)(C)C(C)(C)C)C(O)C1O (stereo unspecified)	206 to 209 °C
COC(=O)c1ccc(C)nc1Oc1nc(OC)cc(OC)n1	99 to 103 °C
CN1C(=O)C(NC(=O)NC2CCCCC2)N=C(c2ccccc2)c2ccccc21 (stereo unspecified)	287 to 288 °C
Cn1c(=O)c(-c2c(Cl)cccc2Cl)cc2cnc(Nc3ccc(Cl)cc3)nc21	255 to 256 °C
CC(C)(C)c1cc(C(C)(C)C)c(=O)c2nc3ccccc3sc1-2	137 to 141 °C
Cc1nc(N2CCN(Cc3ccc(F)cc3)C2=O)sc1C(=O)NCCN1CCCC1	183 to 184 °C
O=C(NC1CCC(CCN2CCN(c3nccc4c3OCC4)CC2)CC1)c1ccc(N2CCS(=O)(=O)CC2)cc1 (stereo unspecified)	260 °C
O=C(NC1CC1)c1nccnc1Oc1cccc(C(F)(F)F)c1	74 to 77 °C
O=C(CNS(=O)(=O)c1ccc2[nH]c(=O)c(=O)[nH]c2c1)OCc1ccccc1	270 to 280 °C
CC(Oc1ncc(F)c(N)n1)c1ccc(F)cc1 (stereo unspecified)	96 to 98 °C
CC(Oc1ccc(-c2ccc(S(N)(=O)=O)cc2)cc1)C(O)CCc1cccnc1 (stereo unspecified)	222 to 223 °C
CCNc1nc(C)c(C(=O)OCC)c(N2CCN(C)CC2)c1N	73 to 75 °C
CCC1(CCOCCNC(=O)NC2CCCCC2)Nc2cnc(C)c(C)c2N1 (stereo unspecified)	187 to 189 °C
COc1ccc(S(=O)(=O)Nc2cccnc2Nc2ccccc2OC)cc1	159 to 160 °C
Cc1cccc(-c2[nH]c(C(C)C)nc2-c2cccc(-c3ccc(S(=O)(=O)N4CCOCC4)cc3)c2)n1	88 to 92 °C
CC12CCC3c4ccc(Cl)cc4CCC3C1CCC2NCc1cccc(C(F)(F)F)c1 (stereo unspecified)	97 to 101 °C
O=c1n(CCO)c2cc(Br)c(Br)c(Br)c2n1CCO	201 to 204 °C
OCc1ccc2cnn(-c3ccnc(N[C@H]4CC[C@H](O)CC4)n3)c2c1	216 to 218 °C
COc1cc(C(=O)C(C#N)C#N)cc(OC)c1OC	158 to 160 °C
COC(=O)c1c(S(N)(=O)=O)c(C)nn1C	174 to 176 °C
CCCCOc1ccc(-c2ccc3c(c2)C=C(C(=O)OC)CCS3(=O)=O)cc1	123 to 125 °C
CCCCC1OC(=O)c2cc(NC=O)ccc21 (stereo unspecified)	127 to 129 °C

SMILES	melting point
CC(C)OCc1cc(O)cc2cc(-c3ccc(O)cc3)oc12	195 to 197 °C
Fc1cc(OCc2ccccc2)cnc1-c1ccccc1	105 to 106 °C
O=[N+]([O-])c1ccc2sc(NCCCO)nc2c1	140 to 144 °C
CCCN(CCC)S(=O)(=O)c1cccc(C(=O)Nc2cccc([N+](=O)[O-])c2)c1	126 to 128 °C
NC(=O)c1[nH]cnc1OC(=O)C=Cc1cccc([N+](=O)[O-])c1	197 °C
CCC(=O)c1cc(OCc2ccccc2)c(OC)cc1[N+](=O)[O-]	120 to 123 °C
O=C(O)C(Cl)=C(Cl)C(=O)N(Cc1ccco1)Cc1ccco1	149 °C
C=CCSC(C(=O)NC(C)=O)C(c1ccccc1)(c1ccccc1)c1ccccc1 (stereo unspecified)	193 to 194 °C
Cc1nc(CNC(=O)c2sc(-n3cnn(Cc4ccc(F)cc4)c3=O)cc2C)cs1	148 to 150 °C
CC(=O)NC1CCNC(c2cccc(Oc3ccccc3)n2)C1 (stereo unspecified)	104 to 106 °C
Nc1ncnc2c1ncn2CC(/C=C/P(=O)(O)O)CO (stereo unspecified)	> 300 °C
CC1(Br)CCc2cc3c(cc2C1=O)CCO3 (stereo unspecified)	95 to 98 °C
O=C1C(=O)c2ccccc2C2=C1SCC(CN1CCC3(CC1)OCCO3)O2 (stereo unspecified)	202 to 204 °C
Cc1cc(OCCN2CCC(n3cnc4cccnc43)CC2)nn1-c1ccc(Cl)c(Cl)c1	104 to 107 °C
CCc1c2s[nH]c(=O)c2c(=O)n2ccc(Cl)cc12	222 to 223 °C
CC(C)n1c(=O)nc(-c2ccc3ccccc3c2)c2cc3c(cc21)OCO3	213 to 215 °C
CCOC1=CC2=CCC3C(CCC4(CC)C(=O)CC(OC(C)=O)C34)C2CC1 (stereo unspecified)	189 °C
CC(C)(C)NCC(O)c1ccc(O)c(C(O)CO)c1 (stereo unspecified)	190 to 192 °C
CCOC(=O)C(Cc1ccc(C(F)(F)F)cc1)C(=O)c1ccc(F)cc1 (stereo unspecified)	56 to 57 °C
CC(C)(C)CC(C)(C)c1cc(Cc2cc(C(C)(C)C)cc(C(C)(C)C)c2O)c(O)c(-n2nc3ccccc3n2)c1	137 °C
CCC1c2cc3c(cc2C(C=Cc2ccc(NC(C)=O)cc2)=NN(C(C)=O)C1C)OCO3 (stereo unspecified)	137 to 140 °C
COC(=O)C(CC1CCCC1)c1ccc(I)cc1 (stereo unspecified)	51 to 54 °C
Cc1ccc2noc(-c3ccccc3)c2c1	64 to 66 °C
Nc1ncc(-c2cccnc2)cc1[N+](=O)[O-]	226 to 228 °C

SMILES	melting point
N#Cc1ccc(-c2cn(-c3ccc(Br)cc3)c(C(=O)O)c2C(=O)O)cc1	217 to 221 °C
COc1ccc(C(=O)Nc2cc(OC)c(Cl)cc2OC)cc1F	197 to 199 °C
O=C(CCl)c1ccc(Cl)c(S(=O)(=O)NC2CCCCC2)c1	117 °C
O=S1(=O)N=C(O)C(O)=N1	171 to 172 °C
COc1cccc(Nc2ccc(Nc3ncnc4cc(-c5ccccc5)sc34)cc2)c1	189 to 191 °C
COc1nc2cc(Br)c(Br)c(NS(C)(=O)=O)c2nc1OC	186 to 187 °C
N#CC#Cc1ccc(O)cc1	134 to 137 °C
O=C(NC(c1ccccc1)c1cc2ccncc2[nH]1)c1cccnc1 (stereo unspecified)	178 to 188 °C
O=C(NCCOc1ccc(CC(Oc2ccc(-c3ccccn3)cc2)C(=O)O)cc1)c1ccc(-c2ccccn2)cc1 (stereo unspecified)	98 to 101 °C
NC(=O)Nc1nc2c(s1)-c1c(cnn1-c1ccccc1)CC2	321 to 325 °C
COC(=O)[C@@H]1C[C@H](OS(=O)(=O)c2ccc(Br)cc2)C(=O)[C@@H]2[C@@]3(C)C[C@@H](c4ccoc4)OC(=O)[C@H]3CC[C@]21C	165 to 166 °C
Cc1cc(N)nc(C)c1-c1ccc(Cl)cc1	148 to 152 °C
CC(C)(C)OC(=O)NCCCn1nnnc1S	75 to 77 °C
N#Cc1c(F)cc(OCc2ccsc2)cc1OC(C(=O)O)c1ccccc1Cl (racemic)	152 to 153 °C
CC(C)n1nc(-c2sc(C(=O)NCc3ccncc3)nc2-c2ccc(F)cc2)ccc1=O	155 to 157 °C
COC1=CCC(OC)(OC)C=C1CCc1ccc(OC)cc1C	71 to 72 °C
CC(=O)c1cncc(OC2SCC(O)C(O)C2O)c1 (stereo unspecified)	209 °C
Cn1ccc2ccc(NC(=O)/C=C/c3ccc(C(C)(C)C)cc3)cc21	95 °C
CC(C)(C)C(NC(=O)c1cccc(Cl)c1)Nc1c(Nc2cccnc2Cl)c(=O)c1=O (stereo unspecified)	213 to 214 °C
C=CC1(CC)OC(=O)c2ccc(Oc3ccc(C(F)(F)F)cc3Cl)cc21 (stereo unspecified)	77 to 79 °C
Cc1cc(-c2ccc(-c3ccco3)cc2)n(-c2ccc(S(N)(=O)=O)cc2)c1	153 to 155 °C
COC(=O)c1sc(S(C)(=O)=O)cc1OCc1ccccc1	125 to 126 °C
COc1ccc(C(=O)Nc2ccccc2)cc1NCc1cccc(F)c1	137 to 140 °C
